Measurements: patent US12643880B2, “Heterobifunctional molecules as TEAD inhibitors” (Genentech, Inc., priority 2020, dated 2026)
Where a name gives a salt, the structure may show the parent alone.

Legend:
Type in all cases: binding
Conditions in all cases: His-tagged TEAD protein, biotinylated lipid pocket probe
TEAD3 = TEAD3 (Homo sapiens, UniProt Q99594); assay: TEAD lipid pocket TR-FRET (Lipid HTRF) competition assay, TEAD3
Procedure: (§1) His-tagged TEAD proteins are pre-incubated with TEAD project compounds for 30 minutes at room temperature. Biotinylated lipid pocket probes are then added to the TEAD/Compound mixture and incubated for 60 minutes at room temperature. The lipid pocket probe competes with the test compound for the TEAD lipid pocket until equilibrium is reached. After 60 minutes, Europium labelled anti-His (Perkin Elmer #ADO 110) and XL665 labelled streptavidin (CIS Bio 610SAXAC) are added to the TEAD/test compound/lipid pocket mixture and incubated for 30 minutes. TR-FRET values are then measured using an EnVision multi-label plate reader (Perkin Elmer Cat #2104-1A.) If the lipid pocket probe binds to TEAD as expected, a TR-FRET signal results from the proximity of Tani-His Eu and XL665. If a TEAD lipid pocket binder such as binds and displaces the lipid pocket probe, the disruption of the TEAD:probe interaction results in a decrease in TR-FRET signal. The potency of compounds as TEAD lipid pocket binders is determined by IC50 value generated using a non-linear 4 parameter curve fit. This assay format enables more sensitive determinations of lipid pocket affinity than the aforementioned TEAD lipid pocket FP assay due to the decreased concentration of TEAD protein required for the TR-FRET assay format.

TEAD1 = TEAD1 (Homo sapiens, UniProt P28347); assay: TEAD lipid pocket TR-FRET (Lipid HTRF) competition assay, TEAD1
Procedure: as §1

TEAD2 = TEAD2 (Homo sapiens, UniProt Q15562); assay: TEAD lipid pocket TR-FRET (Lipid HTRF) competition assay, TEAD2
Procedure: as §1

TEAD4 = TEAD4 (Homo sapiens, UniProt Q15561); assay: TEAD lipid pocket TR-FRET (Lipid HTRF) competition assay, TEAD4
Procedure: as §1

TEAD4, sequence (Q15561 whole entry, species assumed): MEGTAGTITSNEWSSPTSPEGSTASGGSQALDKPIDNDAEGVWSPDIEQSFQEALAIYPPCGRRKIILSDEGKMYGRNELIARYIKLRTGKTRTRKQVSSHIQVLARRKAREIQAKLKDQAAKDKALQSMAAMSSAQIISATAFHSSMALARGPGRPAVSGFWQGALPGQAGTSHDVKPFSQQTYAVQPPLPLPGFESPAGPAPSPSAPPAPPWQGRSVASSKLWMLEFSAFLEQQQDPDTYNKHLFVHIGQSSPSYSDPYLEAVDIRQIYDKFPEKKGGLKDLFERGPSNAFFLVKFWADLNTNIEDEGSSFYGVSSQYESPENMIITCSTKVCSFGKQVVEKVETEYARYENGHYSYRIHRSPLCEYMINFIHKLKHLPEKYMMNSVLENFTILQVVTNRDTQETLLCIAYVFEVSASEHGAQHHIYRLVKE
TEAD2, sequence (Q15562 whole entry, species assumed): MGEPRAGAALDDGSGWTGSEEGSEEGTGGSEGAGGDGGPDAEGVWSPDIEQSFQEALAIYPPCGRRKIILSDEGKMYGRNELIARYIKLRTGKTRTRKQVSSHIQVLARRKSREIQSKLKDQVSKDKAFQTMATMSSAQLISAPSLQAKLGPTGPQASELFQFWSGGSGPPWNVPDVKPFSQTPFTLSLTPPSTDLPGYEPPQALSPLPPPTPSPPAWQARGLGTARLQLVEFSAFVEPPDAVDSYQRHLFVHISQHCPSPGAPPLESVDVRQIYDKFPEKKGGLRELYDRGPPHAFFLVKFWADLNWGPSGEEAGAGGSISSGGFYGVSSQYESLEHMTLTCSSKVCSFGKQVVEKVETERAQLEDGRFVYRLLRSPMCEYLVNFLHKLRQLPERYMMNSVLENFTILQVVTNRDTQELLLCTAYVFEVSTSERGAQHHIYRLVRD
TEAD3, sequence (Q99594 whole entry, species assumed): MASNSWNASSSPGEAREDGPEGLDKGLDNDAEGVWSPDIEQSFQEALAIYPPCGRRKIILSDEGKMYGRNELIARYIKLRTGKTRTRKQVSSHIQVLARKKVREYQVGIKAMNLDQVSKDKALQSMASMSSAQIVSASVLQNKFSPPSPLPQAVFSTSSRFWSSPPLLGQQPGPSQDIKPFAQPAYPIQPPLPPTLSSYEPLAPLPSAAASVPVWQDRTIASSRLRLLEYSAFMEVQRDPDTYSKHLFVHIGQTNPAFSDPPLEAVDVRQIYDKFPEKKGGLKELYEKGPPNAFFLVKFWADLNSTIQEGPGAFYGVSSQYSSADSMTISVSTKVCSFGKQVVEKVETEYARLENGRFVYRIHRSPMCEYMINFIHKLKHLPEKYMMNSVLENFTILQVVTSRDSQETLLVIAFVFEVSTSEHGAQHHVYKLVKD
TEAD1, sequence (P28347 whole entry, species assumed): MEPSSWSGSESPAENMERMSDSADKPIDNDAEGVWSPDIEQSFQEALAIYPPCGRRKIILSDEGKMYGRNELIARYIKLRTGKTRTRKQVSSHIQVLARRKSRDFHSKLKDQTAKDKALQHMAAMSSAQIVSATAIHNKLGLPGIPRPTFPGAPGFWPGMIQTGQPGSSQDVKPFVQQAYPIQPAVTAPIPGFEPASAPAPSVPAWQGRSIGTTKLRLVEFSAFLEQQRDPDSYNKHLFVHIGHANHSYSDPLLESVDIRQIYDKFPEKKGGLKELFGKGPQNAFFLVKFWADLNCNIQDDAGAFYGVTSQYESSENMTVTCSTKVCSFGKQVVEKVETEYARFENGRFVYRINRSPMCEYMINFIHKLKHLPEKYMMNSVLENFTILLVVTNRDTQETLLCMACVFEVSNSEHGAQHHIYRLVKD

Compound	IC50 (TEAD3) [µM]	IC50 (TEAD1) [nM]	IC50 (TEAD2) [nM]	IC50 (TEAD4) [nM]
CN[C@@H](C)C(=O)N[C@H](C(=O)N1CCC[C@H]1C(=O)Nc1sc(NC(=O)COCCOCCOCCOCCN(C)C(=O)Cc2cccc(CNC(=O)c3cc(/C=C/[C@H]4CC[C@H](C(F)(F)F)CC4)c(OC)cn3)c2)nc1-c1ccccc1)C1CCCCC1 [Compound 18, N-(3-(17-((5-((S)-1-((S)-2-Cyclohexyl-2-((S)-2-(methylamino)propanamido)acetyl)pyrrolidine-2-carboxamido)-4-phenylthiazol-2-yl)amino)-3-methyl-2,17-dioxo-6,9,12,15-tetraoxa-3-azaheptadecyl)benzyl)-5-methoxy-4-((E)-2-(trans-4-(trifluoromethyl)cyclohexyl)vinyl)picolinamide]	4.8	600	490	140
CN[C@@H](C)C(=O)N[C@H](C(=O)N1CCC[C@H]1C(=O)Nc1sc(NC(=O)COCCOCCOCCOCCOCCOCCN(C)C(=O)Cc2cccc(CNC(=O)c3cc(/C=C/[C@H]4CC[C@H](C(F)(F)F)CC4)c(OC)cn3)c2)nc1-c1ccccc1)C1CCCCC1 [Compound 20, N-(3-(23-((5-((S)-1-((S)-2-Cyclohexyl-2-((S)-2-(methylamino)propanamido)acetyl)pyrrolidine-2-carboxamido)-4-phenylthiazol-2-yl)amino)-3-methyl-2,23-dioxo-6,9,12,15,18,21-hexaoxa-3-azatricosyl)benzyl)-5-methoxy-4-((E)-2-(trans-4-(trifluoromethyl)cyclohexyl)vinyl)picolinamide formate]	4.3	510	340	130
CN[C@@H](C)C(=O)N[C@H](C(=O)N1CCC[C@H]1C(=O)Nc1sc(NC(=O)CCCN(C)C(=O)Cc2cccc(CNC(=O)c3cc(/C=C/[C@H]4CC[C@H](C(F)(F)F)CC4)c(OC)cn3)c2)nc1-c1ccccc1)C1CCCCC1 [Compound 21, N-(3-(2-((4-((5-((S)-1-((S)-2-Cyclohexyl-2-((S)-2-(methylamino)propanamido)acetyl)pyrrolidine-2-carboxamido)-4-phenylthiazol-2-yl)amino)-4-oxobutyl)(methyl)amino)-2-oxoethyl)benzyl)-5-methoxy-4-((E)-2-(trans-4-(trifluoromethyl)cyclohexyl)vinyl)picolinamide]	6.2	1300	1000	430

Molecules with a lower IC50 (TEAD3), results first:

IC50 (TEAD3) [µM]	IC50 (TEAD1) [nM]	IC50 (TEAD2) [nM]	IC50 (TEAD4) [nM]	Compound
4.1	540	360	140	CN[C@@H](C)C(=O)N[C@H](C(=O)N1CCC[C@H]1C(=O)Nc1sc(NC(=O)COCCOCCOCCOCCOCCN(C)C(=O)Cc2cccc(CNC(=O)c3cc(/C=C/[C@H]4CC[C@H](C(F)(F)F)CC4)c(OC)cn3)c2)nc1-c1ccccc1)C1CCCCC1 [Compound 19, N-(3-(20-((5-((S)-1-((S)-2-Cyclohexyl-2-((S)-2-(methylamino)propanamido)acetyl)pyrrolidine-2-carboxamido)-4-phenylthiazol-2-yl)amino)-3-methyl-2,20-dioxo-6,9,12,15,18-pentaoxa-3-azaicosyl)benzyl)-5-methoxy-4-((E)-2-(trans-4-(trifluoromethyl)cyclohexyl)vinyl)picolinamide]
3.63	600	380	170	COc1cnc(C(=O)NCc2cccc(CC(=O)NCCOCCOCCOCC(=O)N[C@H](C(=O)N3C[C@H](O)C[C@H]3C(=O)NCc3ccc(-c4scnc4C)cc3)C(C)(C)C)c2)cc1/C=C/[C@H]1CC[C@H](C(F)(F)F)CC1 [Compound 15, N-(3-((S)-16-((2S,4R)-4-Hydroxy-2-((4-(4-methylthiazol-5-yl)benzyl)carbamoyl)pyrrolidine-1-carbonyl)-17,17-dimethyl-2,14-dioxo-6,9,12-trioxa-3,15-diazaoctadecyl)benzyl)-5-methoxy-4-((E)-2-(trans-4-(trifluoromethyl)cyclohexyl)vinyl)picolinamide]
2.57	350	160	60	COc1cnc(C(=O)NCc2cccc(CC(=O)NCCOCCOCCOCCOCC(=O)N[C@H](C(=O)N3C[C@H](O)C[C@H]3C(=O)NCc3ccc(-c4scnc4C)cc3)C(C)(C)C)c2)cc1/C=C/[C@H]1CC[C@H](C(F)(F)F)CC1 [Compound 16, N-(3-((S)-19-((2S,4R)-4-Hydroxy-2-((4-(4-methylthiazol-5-yl)benzyl)carbamoyl)pyrrolidine-1-carbonyl)-20,20-dimethyl-2,17-dioxo-6,9,12,15-tetraoxa-3,18-diazahenicosyl)benzyl)-5-methoxy-4-((E)-2-(trans-4-(trifluoromethyl)cyclohexyl)vinyl)picolinamide]
1.5	280	90	40	COc1cnc(C(=O)NCc2cccc(CC(=O)NCCOCCOCCOCCOCCOCC(=O)N[C@H](C(=O)N3C[C@H](O)C[C@H]3C(=O)NCc3ccc(-c4scnc4C)cc3)C(C)(C)C)c2)cc1/C=C/[C@H]1CC[C@H](C(F)(F)F)CC1 [Compound 17, N-(3-((S)-22-((2S,4R)-4-Hydroxy-2-((4-(4-methylthiazol-5-yl)benzyl)carbamoyl)pyrrolidine-1-carbonyl)-23,23-dimethyl-2,20-dioxo-6,9,12,15,18-pentaoxa-3,21-diazatetracosyl)benzyl)-5-methoxy-4-((E)-2-(trans-4-(trifluoromethyl)cyclohexyl)vinyl)picolinamide]
